In patent US12215106B2, “Pharmaceutical compounds and therapeutic methods” (RUTGERS, THE STATE UNIVERSITY OF NEW JERSEY, priority 2018, dated 2025):
Where a name gives a salt, the structure may show the parent alone. Read-outs that look alike come from different tables or passages of the source.

How the values were obtained:
[1] = system: glioblastoma patient derived spheres; assay: MTT assay, cell viability of patient derived GBM spheres; assay type: cell-based; conditions: Homo sapiens
Source text: To generate primary patient-derived GBM models for testing small molecule inhibitors, fresh primary tissues were received from patients undergoing surgical resection of WHO grade IV gliomas at Robert Wood Johnson University Hospital (RWJUH) under an approved IRB protocol. De-identified primary human GBM samples were delivered to the laboratory. Cells were obtained through mechanical dissociation of the tumor tissue using a blade and plated in DMEM/F12 medium (Gibco) in the presence of B-27 Supplement (Gibco, #17504-044), 20 ng/ml of human recombinant EGF (Gibco, #PHG0311L) and human recombinant FGF (Peprotech, #AF-100-18B). The following day, the culture was collected, incubated with Accutase (Gibco, #A11105-01) at 37° C. and passed through a 26G×⅜ needle (BD Precision Glide, #305110) to obtain a single cell suspension and re-plated in the same supplemented medium. Cells were cultured at low (5-6) passages in serum-free sphere 3D culture with mitogens that preserve the clonogenic stemness phenotype. […] different primary GBM cells (GBM #46, GBM #50, and GBM #76) were tested for cell viability after treatment with the inhibitors. Cell viability was measured using MTT assay. Briefly, one thousand cells per well were seeded in 96-well plates and exposed to drug in a total of 200 uL media. After 72 hours, 50 uL of stock concentration of 2.5 mg/mL 3-(4,5-dimethylthiazol-2-yl)-2,5-diphenyltetrazolium bromide (MTT) (Sigma, #M2128) dissolved in PBS was added to wells and incubated at 37° C. for 4 hours; read in a […] plate reader at 570 nm and compared to DMSO and untreated cells. The IC50 (defined as the concentration at which 50% of the cells were viable) was determined from the curve.
Novel compounds were synthesized and examined for their effectiveness on inhibiting the growth of patient derived GBM sphere cells that are more enriched in cancer stem-like cells (CSCs). An IC50 was established by measuring cell viability using a MTT assay when compared to vehicle control (DMSO) (FIG. 1-6).

BMI1 = assay: Western blotting of BMI1 protein levels in GBM spheres; assay type: cell-based, human; conditions: for BMI1 levels: GBM spheres, 72 hours, Western blotting
Experimental: Different GBM cells were treated with DMSO or different concentrations of test compounds for 72 hours. Cells were lysed in Cell Lysis Buffer (Cell Signaling, #9803) supplemented with Protease Inhibitor Cocktail (Sigma, #P8340), spun down for 30 minutes at 4° C., after which the supernatant was collected at every time point indicated. Western blotting analysis was performed on all samples as described above. BMI1 loss started at 6-12 hours, coinciding with an upper shift and hyper-phosphorylation of BMI1 at 12-24 hours and complete depletion at 72 hours.
GBM cells were treated with DMSO or different concentrations of the test compounds for 72 hours. Cells were lysed in Cell Lysis Buffer (Cell Signaling, #9803) supplemented with Protease Inhibitor Cocktail (Sigma, #P8340), sonicated briefly while on ice and spun down for 30 minutes at 4° C., after which the supernatant was collected. For each sample, 2 uL of lysate was mixed well into 198 uL de-ionized water. Next, 10 uL of this diluted sample was added to a well in a 96 well plate in quadruplets and mixed with Protein Assay Dye Reagent Concentrate (Bio-Rad, #500-0006) (which was diluted 1:5 with water). BSA standards of 25 ng, 50 ng, 100 ng, 200 ng and 250 ng were also used to the plate and mixed with the reagent. The plate was read in a plate reader at 600 nm and samples were calibrated to the standards to determine the concentration of protein. Using the NuPAGE system (Invitrogen), 25 ug of protein was mixed with NuPAGE LDS 4× Sample Buffer (#NP0007), NuPAGE 10× Reducing Agent (#NP0004) and water, mixed well and heated at 96° C. for 15 minutes to denature the protein. The samples were then loaded into 4-12% Bis-Tris gels (Novex (Invitrogen), #0323) with a protein ladder (Novex (Invitrogen) Sharp Pre-stained protein ladder, #57318) and run at 100-120V for about 2 hours with NuPAGE 20×SDS MES Running Buffer (#NP0002) diluted with water. Next, the gel was taken out and loaded into a NuPAGE transfer cassette with a polyvinylidene membrane with NuPAGE 20× Transfer Buffer (#NP0006-1) diluted with water and methanol. Proteins were transferred for 1 hour at 30V at room temperature. Blocking was performed using the Millipore SNAP i.d. Protein Detection system in 0.25% non-fat dry milk in 0.1% Tween in PBS (PBST). […] Protein signals were detected using ECL Western Blotting Substrate (Pierce, #32106) and filmed.
BMI1 levels in GBM spheres were then analyzed by Western Blotting over a time-course of 120 hours upon treatment with compound 14 at 7-10 nM conc. […]

[2] = 72 h, read-out: IC50, antitumor activity against glioblastoma patient derived spheres
[3] = read-out: Potency in patient derived GBM spheres

| SMILES | IC50 [1, 2] [nM] | IC50 [1, 3] [nM] | BMI1 levels (BMI1) | IC50 ([1]; MTT, 72 hours, figure legends, read-out: IC50, antitumor activity against glioblastoma patient derived spheres) [nM] | IC50 ([1]; summary data, read-out: Potency in patient derived GBM spheres) [nM] | BMI1 protein levels, time-course (BMI1; 7-10 nM, single treatment, time-course of 120 hours) |
| --- | --- | --- | --- | --- | --- | --- |
| [2H]C([2H])([2H])Oc1ccc(Nc2nc(-c3c(C)nc4ccccn34)cs2)cc1 [Compound 15, N-(4-(methoxy-d3)phenyl)-4-(2-methylimidazo[1,2-c]pyridin-3-yl)thiazol-2-amine hydrochloride] | 7 | 1000 | slightly lowered BMI1 levels |  |  |  |
| [2H]C1([2H])Oc2ccc(Nc3nc(-c4c(C)nc5ccccn45)cs3)cc2O1 [Compound 17, N-(benzo[d][1,3]dioxol-5-yl-2,2-d2)-4-(2-methylimidazo[1,2-c]pyridin-3-yl)thiazol-2-amine hydrochloride] | 20 | 10 | Lowered BMI1 levels |  |  |  |
| COc1c(F)cc(Nc2nc(-c3c(C)nc4ccccn34)cs2)cc1F [Compound 14, hydrochloride] |  |  | Lowered BMI1 levels | 7 | 10 | reduction in BMI1 protein levels at 72, 96 and 120 hours |
| Cc1nc2ccccn2c1-c1csc(Nc2ccc3c(c2)OC(F)(F)O3)n1 [Compound 16, N-(2,2-difluorobenzo[d][1,3]dioxol-5-yl)-4-(2-methylimidazo[1,2-a]pyridin-3-yl)thiazol-2-amine hydrochloride] | 200 | 10 |  |  |  |  |
